Laboratory results taken from patent publication US20080234381A1, “Novel Trifluoromethoxy-Substituted Aryl Anilides” (Novo Nordisk A/S, priority 2005, published 2008).

N#Cc1ccc(NC(=O)c2ccc3ccccc3c2O)c(OC(F)(F)F)c1 [Example 1, 1-Hydroxy-naphthalene-2-carboxylic acid(4-cyano-2-trifluoromethoxy-phenyl)-amide] showed a melting point of 178 °C.
Compound N#Cc1ccc(NC(=O)c2c(O)ccc3ccccc23)c(OC(F)(F)F)c1 [Example 2, 2-Hydroxy-naphthalene-1-carboxylic acid(4-cyano-2-trifluoromethoxy-phenyl)-amide] has a melting point of 169 °C.
Compound N#Cc1ccc(NC(=O)c2cc3ccccc3cc2O)c(OC(F)(F)F)c1 [Example 3, 3-Hydroxy-naphthalene-2-carboxylic acid(4-cyano-2-trifluoromethoxy-phenyl)-amide] has a melting point of 248 °C.
